Results as given in PubChem BioAssay (NCI).
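Cultured in 96-well plates, cells were exposed to test compound for 48 hours across five concentrations. Definition used: TGI = concentration required for complete inhibition of growth.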

Legend:
Test in all cases: NCI anticancer screen, dose series, 48 h
[1] = system: ACHN renal
[2] = system: NCI-H23 lung
[3] = system: LOX IMVI melanoma
[4] = system: EKVX NSCLC
[5] = system: 786-0 renal
[6] = system: BT-549 breast
[7] = system: A498 renal
[8] = system: HT29 colon
[9] = system: OVCAR-5 ovarian
[10] = system: CCRF-CEM leukemia
[11] = system: A549 NSCLC
[12] = system: SF-268 CNS
[13] = system: U251 CNS
[14] = system: T-47D breast
[15] = system: KM12 colon
[16] = system: OVCAR-3 ovarian
[17] = system: UACC-62 melanoma
[18] = system: NCI-H226 lung
[19] = system: DU-145 prostate
[20] = system: HOP-92 NSCLC

| Structure (SMILES) | TGI [1] [µM] | TGI [2] [µM] | TGI [3] [µM] | TGI [4] [µM] | TGI [5] [µM] | TGI [6] [µM] | TGI [7] [µM] | TGI [8] [µM] | TGI [9] [µM] | TGI [10] [µM] | TGI [11] [µM] | TGI [12] [µM] | TGI [13] [µM] | TGI [14] [µM] | TGI [15] [µM] | TGI [16] [µM] | TGI [17] [µM] | TGI [18] [µM] | TGI [19] [µM] | TGI [20] [µM] |
| --- | --- | --- | --- | --- | --- | --- | --- | --- | --- | --- | --- | --- | --- | --- | --- | --- | --- | --- | --- | --- |
| CCOC(=O)C(O)(NC(=O)Nc1ccc(F)cc1)C(F)(F)F (stereo not drawn) | > 100 | > 100 | > 100 | > 100 | > 100 | > 100 | > 100 | > 100 | > 100 | > 100 | > 100 | > 100 | > 100 | > 100 |  |  |  |  |  |  |
| CCOC(CCCN1CCC2(CC1)C(=O)N(C)CN2c1ccccc1)(OCC)c1ccc(F)cc1 | 28.6 | 39.5 | 31 | 9.81 | 27.7 |  |  | 14 | 21.6 | 18.7 | 23.9 | 29.7 | 26.3 | 29.8 | 29.5 | 26.8 | 34.3 | 33.6 | 46.5 |  |
| CN1CN(c2ccccc2)C2(CCN(CCCC(=O)c3cccs3)CC2)C1=O | > 100 | > 100 | > 100 | 80.9 | > 100 |  |  | 73.6 | 87.4 | > 100 | > 100 | > 100 | > 100 | > 100 | > 100 | > 100 | > 100 | > 100 | > 100 |  |
| O=C1CCC[C@H]2O[C@@H](COCc3ccccc3)C[C@@H]12 | > 100 | > 100 |  |  | > 100 |  | > 100 | > 100 | > 100 | > 100 | > 100 | > 100 | > 100 | > 100 | > 100 | > 100 | > 100 | > 100 | > 100 | > 100 |
| CC(Oc1ccc(OCC2CCCCC2)cc1)C(=O)N(CCO)CCO (stereo not drawn) | > 100 | > 100 | > 100 |  | > 100 |  | > 100 | > 100 |  | > 100 | > 100 | > 100 | > 100 |  | > 100 | > 100 | > 100 | > 100 |  |  |
| Cc1ccc(NC(=O)CC(=O)n2nc(C)c(N=Nc3ccc(S(=O)(=O)CCOS(=O)(=O)O)cc3)c2C)cc1 | > 100 | > 100 | > 100 | > 100 | > 100 |  | > 100 | > 100 | > 100 | > 100 | > 100 | > 100 | > 100 | > 100 | > 100 | > 100 | > 100 | > 100 | > 100 |  |
| CC(=O)O[C@]12CCC[C@H]1C1(O)C(O)CCC[C@H]12 (stereo partly drawn) | > 100 | > 100 | > 100 | > 100 | > 100 |  |  | > 100 |  | > 100 | > 100 | > 100 | > 100 |  | > 100 |  | > 100 | > 100 |  |  |
| CC(CCc1ccc2c(c1)c(=N)c1ccc(N)cc1n2O)CC(C)(C)C (stereo not drawn) | 3.14 |  | 3.07 | 3.04 | 2.82 |  | 3.51 |  | 2.93 | 2.69 | 3.22 | 4.23 | 2.67 |  | 3.51 | 3.19 | 2.79 |  |  |  |
| OC(c1ccccc1)(c1ccccc1)c1cccnc1 | > 100 | > 100 | > 100 | > 100 | > 100 |  | > 100 | > 100 | > 100 | > 100 | > 100 | > 100 | > 100 |  | > 100 | > 100 | > 100 | > 100 |  |  |
| O=C1C(=O)N(C2CCCCC2)C(=S)N1C1CCCCC1 | > 100 | > 100 | > 100 | > 100 | > 100 |  | > 100 | > 100 | > 100 | > 100 | > 100 | > 100 | > 100 | > 100 | > 100 |  | > 100 | > 100 | > 100 | > 100 |
| Cc1cccc(Nc2cn(CCOc3ccccc3)c(=O)n(CCOc3ccccc3)c2=O)c1 | > 100 | > 100 | > 100 | 96.9 | > 100 |  | > 100 |  | > 100 | > 100 | > 100 | > 100 | > 100 |  | > 100 | > 100 | > 100 |  | > 100 | > 100 |
| CC1CC/C(=C\c2ccc(N(C)C)cc2)C(=O)/C1=C/c1ccc(N(C)C)cc1 (stereo not drawn) | > 100 | > 100 | > 100 | > 100 | > 100 | > 100 | > 100 | > 100 | > 100 | > 100 | > 100 |  | > 100 | > 100 | > 100 | > 100 | > 100 | > 100 |  |  |
| COC(=O)[C@@]12OC[C@]34C([C@@H](O)C1O)[C@@]1(C)CC(=O)C(O)=C(C)C1C[C@H]3OC(=O)[C@H](OC(=O)CC(C)C(F)(F)F)[C@H]42 (stereo partly drawn) | 0.301 | 0.0717 |  | 0.999 | 0.708 |  | 0.121 | 0.146 | 1.18 |  | 0.492 | 0.644 | 0.214 |  | 0.563 |  | 0.0629 | 0.0338 |  | 0.131 |
| C=C(Br)CN(CC(=C)Br)C(C)=O | > 100 | > 100 | > 100 | > 100 | > 100 |  | > 100 | > 100 | > 100 | > 100 | > 100 | > 100 | > 100 | > 100 | > 100 | > 100 | > 100 | > 100 | > 100 |  |
| O=C1CCc2cc3c(cc21)CC1(Cc2ccccc2C1)C3 | > 91.7 | > 86.5 | > 100 | > 100 | > 100 |  | 66.6 | 14.2 | > 86.9 | 7.03 | > 100 | > 100 | > 100 | > 100 | > 100 | > 80.8 | > 88.3 | 67.7 | > 100 | 35.6 |
| Cc1ncc([N+](=O)[O-])n1CCNC(=O)CCCn1cnc([N+](=O)[O-])n1 | > 100 | > 100 | > 100 | > 31.6 | > 100 |  | > 100 | > 100 | > 100 | > 100 | > 100 | > 100 | > 100 | > 100 | > 100 | > 100 | > 100 | > 100 | > 100 | > 100 |
| CCOC(=O)N1CCN(C(=O)Nc2cccc3ccccc23)CC1 | > 10 | > 10 | > 10 | > 10 |  |  | > 10 | > 10 | > 10 | > 10 | > 10 | > 10 | > 10 | > 10 | > 10 | > 10 | > 10 | > 10 | > 10 |  |
| C=CC12CN(C)C3C4COC(CC41)C1(C(=O)Nc4ccccc41)C32 (stereo not drawn) |  | > 200 | > 200 | > 200 |  |  | > 200 | > 200 | > 200 | > 195 | > 200 | > 200 | > 200 |  | > 200 | > 200 | > 200 | > 200 |  | > 200 |
| CC(CCCOC(c1ccccc1)(c1ccccc1)c1ccccc1)OC(=O)Nc1cc([N+](=O)[O-])cc([N+](=O)[O-])c1 (stereo not drawn) | 93.5 | 58.7 | > 100 | 97 | 94.9 |  | 72.3 | > 100 |  | > 100 | > 100 | > 100 | 83.8 |  | > 100 | > 100 | 50.2 |  |  |  |
| CC(C)CNC(=O)Cn1c2c(c3ccccc31)CCCC2 | > 100 | > 100 | > 100 | > 100 | 61.2 | > 100 | 85 | > 100 | > 100 | > 100 | > 100 | > 100 |  |  |  | > 100 | > 100 |  |  | > 100 |
| Cn1c(=O)nc2n(-c3ccc(Cl)cc3Cl)c3ccccc3nc-2c1=O |  | 22 |  | 16.9 |  |  |  | 10.3 | 49 |  | 13.3 | 76 | 19 |  | 15.8 | 5.59 | 6.16 |  |  | 9.24 |
| CC1=NN(C(=O)c2ccc(Cl)cc2)C(=O)/C1=C/c1cccc([N+](=O)[O-])c1 | > 100 | > 100 | > 100 | > 100 | > 100 |  | > 100 | > 100 | > 100 | > 100 | > 100 | > 100 | > 100 |  | > 100 | > 100 | > 100 |  |  | > 100 |
| CCc1cc2c(cc1CCCC(=O)O)CC1(Cc3ccc(C(=O)O)cc3C1)C2 (stereo not drawn) | > 100 | > 100 | > 100 | > 100 | > 100 |  | > 100 | > 100 | > 100 | > 100 | > 100 | > 100 | > 100 | > 100 | > 100 | > 100 |  | > 100 | > 100 | > 100 |
| CCOC(=O)CN1CCSC1=NC#N |  | > 100 | > 37.6 | > 100 |  |  | > 100 | > 100 | > 100 | > 100 | > 100 | > 100 | > 100 |  | > 100 | > 100 | > 100 | > 100 |  | > 100 |
| COc1cc2c(c(OC)c1OC)C(=O)[C@H]1OC(=O)N[C@@H]21 | > 100 | > 100 | > 100 |  | > 100 |  | > 100 | > 100 | > 100 | > 100 | > 100 | > 100 | > 100 | > 100 | > 100 | > 100 | > 100 | > 100 | > 100 | > 100 |
| O=[N+]([O-])/C(C(Cl)=C(Cl)Cl)=C1/OCCS1 | 42.2 | 72.4 | 41.8 | > 100 | 38.6 |  | 36.8 | > 100 | 92.6 | 35.4 | 55.6 | 71.1 | > 100 | 91 | 94.3 | 36.8 | 61.9 | 56.1 | > 100 |  |
| CC1=CCS(=O)(=O)C1C(O)C1=C(C)CCCC1(C)C (stereo not drawn) | > 100 | > 100 | > 100 | > 100 | > 100 |  | > 100 | > 100 | > 100 | > 100 | > 100 |  | > 100 | > 100 | > 100 | > 100 | > 100 | > 100 | > 100 |  |
| CC(C)=CCC/C(C)=C/Cc1c(O)ccc2c1[nH]c1cc(O)c(C)cc12 | > 25 |  | > 25 |  | > 25 |  |  | > 25 | > 25 | > 25 | > 25 | > 25 | > 25 |  | > 25 | 21.2 | > 25 | > 25 |  | > 25 |
